Experimental data taken from ChEMBL document CHEMBL2021812, “Aryltriflates as a Neglected Moiety in Medicinal Chemistry: A Case Study from a Lead Optimization of CXCL8 Inhibitors” (ACS Med Chem Lett, 2011).
The source made the active and inactive calls. No cut-off for these calls is given here.

Experiments:
[1] = target: T1, C-X-C chemokine receptor type 2 (Homo sapiens) (UniProt P25025); assay: Inhibition of CXCR2 in human polymorphonucleate cells assessed as inhibition of CXCL1-induced chemotaxis at 10^-8 M incubated for 15 mins prior to CXCL1-induction measured after 45 mins
T1 sequence (whole entry): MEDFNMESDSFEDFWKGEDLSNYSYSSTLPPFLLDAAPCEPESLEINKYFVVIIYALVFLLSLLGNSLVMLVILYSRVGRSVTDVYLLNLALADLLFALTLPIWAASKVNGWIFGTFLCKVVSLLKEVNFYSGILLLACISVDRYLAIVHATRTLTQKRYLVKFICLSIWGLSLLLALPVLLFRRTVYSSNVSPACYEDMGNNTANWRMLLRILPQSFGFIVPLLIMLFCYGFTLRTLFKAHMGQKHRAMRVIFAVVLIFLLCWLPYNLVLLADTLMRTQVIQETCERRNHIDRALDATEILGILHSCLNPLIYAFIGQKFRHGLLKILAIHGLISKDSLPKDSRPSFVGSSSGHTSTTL

CYP2C19 = CYP2C19 (Homo sapiens, UniProt P33261); assay: Inhibition of CYP2C19 using DBF as substrate at 10 uM; format: ADME; details: probe DBF
[2] = target: Interleukin-8 receptors, CXCR1/CXCR2 (Homo sapiens) (UniProt P25025+P25024); assay: Inhibition of CXCR1/2 in human polymorphonucleate cells assessed as inhibition of CXCL8-induced chemotaxis at 10^-8 M incubated for 15 mins prior to CXCL8-induction measured after 45 mins
CYP2C9 = CYP2C9 (Homo sapiens, UniProt P11712); assay: Inhibition of CYP2C9 using 7MFC as substrate at 10 uM; format: ADME; details: probe 7MFC
CYP1A2 = target: T2, CYP1A2 (Homo sapiens, UniProt P05177); assay: Inhibition of CYP1A2 using CEC as substrate at 10 uM; format: ADME; details: probe CEC
T2 sequence (P05177 whole entry): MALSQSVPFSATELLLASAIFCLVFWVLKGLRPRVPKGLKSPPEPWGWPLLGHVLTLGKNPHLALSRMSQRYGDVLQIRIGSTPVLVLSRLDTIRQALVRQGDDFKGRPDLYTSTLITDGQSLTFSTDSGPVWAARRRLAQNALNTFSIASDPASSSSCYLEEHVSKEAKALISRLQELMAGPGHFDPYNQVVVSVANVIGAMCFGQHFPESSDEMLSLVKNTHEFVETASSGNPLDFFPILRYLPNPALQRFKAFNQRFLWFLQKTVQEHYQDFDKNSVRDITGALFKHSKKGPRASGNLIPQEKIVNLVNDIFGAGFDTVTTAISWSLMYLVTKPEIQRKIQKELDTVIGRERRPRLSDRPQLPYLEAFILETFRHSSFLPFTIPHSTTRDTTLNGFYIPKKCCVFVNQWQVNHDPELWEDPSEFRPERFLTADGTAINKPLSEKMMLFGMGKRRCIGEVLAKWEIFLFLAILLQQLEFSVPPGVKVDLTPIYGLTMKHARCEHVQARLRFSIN

CYP2D6 = CYP2D6 (Homo sapiens, UniProt P10635); assay: Inhibition of CYP2D6 using AMMC as substrate at 10 uM; format: ADME; details: probe AMMC
CYP3A4 = CYP3A4 (Homo sapiens, UniProt P08684); assay: Inhibition of CYP3A4 using BFC as substrate at 10 uM; format: ADME; details: probe BFC
[3] = Metabolic stability in rat liver microsomes assessed as compound remaining at 1 uM preincubated for 10 mins measured after 30 mins; format: ADME, Microsome; details: read-out: Stability
[4] = Chemical stability of the compound assessed as compound remaining at pH 7.4 after 2 hrs; format: physicochemical; details: buffer, read-out: Stability
[5] = Metabolic stability in rat plasma assessed as compound remaining at 1 uM after 1 hr; format: ADME, cell-free; details: read-out: Stability
[6] = Half life in iv dosed rat plasma; format: ADME, organism-based

CYP2C9, sequence (P11712 whole entry): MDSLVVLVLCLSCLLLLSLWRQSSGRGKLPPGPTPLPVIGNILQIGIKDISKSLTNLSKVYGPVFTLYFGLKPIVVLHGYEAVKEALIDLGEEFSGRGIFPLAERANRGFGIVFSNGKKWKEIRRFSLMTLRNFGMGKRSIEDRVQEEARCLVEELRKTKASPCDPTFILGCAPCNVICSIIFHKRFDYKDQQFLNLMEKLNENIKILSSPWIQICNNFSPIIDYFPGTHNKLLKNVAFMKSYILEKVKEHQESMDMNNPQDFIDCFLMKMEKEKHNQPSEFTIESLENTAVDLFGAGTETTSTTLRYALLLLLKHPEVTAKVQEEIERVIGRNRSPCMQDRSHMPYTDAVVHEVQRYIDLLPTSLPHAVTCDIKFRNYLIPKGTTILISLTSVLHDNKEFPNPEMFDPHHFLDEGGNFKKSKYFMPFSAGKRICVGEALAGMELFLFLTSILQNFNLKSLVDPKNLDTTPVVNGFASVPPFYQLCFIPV
CYP3A4, sequence (P08684 whole entry): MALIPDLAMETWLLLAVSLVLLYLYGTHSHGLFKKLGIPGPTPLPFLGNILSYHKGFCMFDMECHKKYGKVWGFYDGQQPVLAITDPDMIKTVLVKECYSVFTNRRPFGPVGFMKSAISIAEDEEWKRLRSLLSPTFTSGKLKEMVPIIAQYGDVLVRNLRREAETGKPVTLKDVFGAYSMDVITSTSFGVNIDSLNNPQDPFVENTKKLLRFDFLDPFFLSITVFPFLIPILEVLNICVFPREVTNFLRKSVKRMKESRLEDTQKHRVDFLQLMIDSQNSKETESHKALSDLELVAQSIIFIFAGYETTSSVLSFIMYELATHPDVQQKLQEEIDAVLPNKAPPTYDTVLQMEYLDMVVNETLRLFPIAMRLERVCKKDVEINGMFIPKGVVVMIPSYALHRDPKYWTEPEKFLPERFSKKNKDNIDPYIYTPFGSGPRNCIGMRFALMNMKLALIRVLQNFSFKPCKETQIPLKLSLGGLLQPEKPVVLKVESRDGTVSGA
CYP2C19, sequence (P33261 whole entry): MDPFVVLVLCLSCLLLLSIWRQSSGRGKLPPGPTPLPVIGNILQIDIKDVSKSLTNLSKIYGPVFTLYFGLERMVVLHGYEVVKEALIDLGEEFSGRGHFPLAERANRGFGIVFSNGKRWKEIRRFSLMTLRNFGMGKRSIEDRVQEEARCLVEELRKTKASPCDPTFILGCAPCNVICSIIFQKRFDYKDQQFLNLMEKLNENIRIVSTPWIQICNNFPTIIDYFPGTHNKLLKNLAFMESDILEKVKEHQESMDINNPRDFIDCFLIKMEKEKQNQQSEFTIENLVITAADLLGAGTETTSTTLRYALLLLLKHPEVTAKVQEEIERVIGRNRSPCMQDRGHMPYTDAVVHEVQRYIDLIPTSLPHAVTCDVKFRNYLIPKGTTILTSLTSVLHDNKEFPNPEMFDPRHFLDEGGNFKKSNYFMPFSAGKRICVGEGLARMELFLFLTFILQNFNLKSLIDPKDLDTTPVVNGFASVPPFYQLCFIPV
CYP2D6, sequence (P10635 whole entry): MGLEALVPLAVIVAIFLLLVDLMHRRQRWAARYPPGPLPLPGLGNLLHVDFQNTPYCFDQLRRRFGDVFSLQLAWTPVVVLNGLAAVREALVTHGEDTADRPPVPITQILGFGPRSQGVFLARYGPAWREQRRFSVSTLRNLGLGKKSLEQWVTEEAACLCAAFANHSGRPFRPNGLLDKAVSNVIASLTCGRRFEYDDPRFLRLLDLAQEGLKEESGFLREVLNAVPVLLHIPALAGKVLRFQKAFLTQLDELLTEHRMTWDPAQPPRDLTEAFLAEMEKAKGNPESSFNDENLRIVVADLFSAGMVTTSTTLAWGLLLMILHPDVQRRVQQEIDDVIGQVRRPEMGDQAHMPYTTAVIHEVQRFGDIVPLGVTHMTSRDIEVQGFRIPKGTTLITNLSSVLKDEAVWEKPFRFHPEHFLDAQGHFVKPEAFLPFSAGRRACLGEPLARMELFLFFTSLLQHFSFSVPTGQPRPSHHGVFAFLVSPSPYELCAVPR
Interleukin-8 receptors, CXCR1/CXCR2 (Homo sapiens), sequence (P25024 whole entry, looked up, one chain of several): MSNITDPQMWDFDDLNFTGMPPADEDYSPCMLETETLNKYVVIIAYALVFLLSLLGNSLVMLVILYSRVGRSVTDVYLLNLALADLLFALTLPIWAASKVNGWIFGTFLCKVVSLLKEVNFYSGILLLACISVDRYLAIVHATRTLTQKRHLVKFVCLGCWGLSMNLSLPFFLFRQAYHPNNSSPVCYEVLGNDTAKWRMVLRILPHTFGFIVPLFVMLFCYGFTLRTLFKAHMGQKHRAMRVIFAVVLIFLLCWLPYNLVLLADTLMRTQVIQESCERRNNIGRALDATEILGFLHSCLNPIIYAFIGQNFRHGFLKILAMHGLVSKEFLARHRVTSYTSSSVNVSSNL

Structure (SMILES)	inhibition [1]	inhibition at 10 µM (CYP2C19)	inhibition [2]	inhibition at 10 µM (CYP2C9)	inhibition at 10 µM (CYP1A2)	inhibition at 10 µM (CYP2D6)	inhibition at 10 µM (CYP3A4)	remaining at 0.5 h, 1 µM [3]	remaining at 2 h [4]	remaining at 1 h, 1 µM [5]	half-life [6]
C[C@@H](C(=O)Nc1ncco1)c1ccc(OS(=O)(=O)C(F)(F)F)cc1	46%	90%	47%	70%	15%	< 5%	44%				
C[C@@H](C(N)=O)c1ccc(OS(=O)(=O)C(F)(F)F)cc1	56%		58%					80%			
Cc1csc(NC(=O)[C@H](C)c2ccc(OS(=O)(=O)C(F)(F)F)cc2)n1	50%	90%	58%	60%	16%	< 5%	60%				
C[C@@H](C(=O)NOCC1CC1)c1ccc(OS(=O)(=O)C(F)(F)F)cc1	35%		40%								
C[C@H](C(=O)NS(C)(=O)=O)c1ccc(OS(=O)(=O)C(F)(F)F)cc1	inactive		inactive								
C[C@@H](C(=O)Nc1nncs1)c1ccc(OS(=O)(=O)C(F)(F)F)cc1	55%	70%	54%	50%	< 5%	40%	66%				
C[C@@H](C(=O)N(C)O)c1ccc(OS(=O)(=O)C(F)(F)F)cc1	49%		47%					75%	> 98%	96%	< 1 h

Continued, values first:

inhibition [1]	inhibition at 10 µM (CYP2C19)	inhibition [2]	inhibition at 10 µM (CYP2C9)	inhibition at 10 µM (CYP1A2)	inhibition at 10 µM (CYP2D6)	inhibition at 10 µM (CYP3A4)	remaining at 0.5 h, 1 µM [3]	remaining at 2 h [4]	remaining at 1 h, 1 µM [5]	half-life [6]	Structure (SMILES)
45%	97%	43%	37%	< 5%	21%	15%					C[C@@H](C(=O)Nc1ccccn1)c1ccc(OS(=O)(=O)C(F)(F)F)cc1
55%	94%	64%	73%	14%	56%	52%					C[C@@H](C(=O)Nc1nc(C(F)(F)F)cs1)c1ccc(OS(=O)(=O)C(F)(F)F)cc1
inactive		inactive									C[C@H](C(=O)O)c1ccc(OS(=O)(=O)C(F)(F)F)cc1
